Measured values published in patent publication US20240252488A1 (KOREA RESEARCH INSTITUTE OF CHEMICAL TECHNOLOGY, priority 2020, published 2024).

What was measured:
FADD−/− Jurkat cells = experiment: Necroptosis inhibition assay, TNF-α-induced necroptosis (CellTiter-Glo 2.0); type: cell-based, human; conditions: TNF-α 15 ng/mL; for Necroptosis inhibition assay (Rescue %) 1 μM: compound 1 μM; for Necroptosis inhibition assay (Rescue %) 10 μM: compound 10 μM
Procedure, shortened: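 Cells at 5.0×10^5 cells/mL were pretreated with compound (final 0.1, 1 and 10 μM) for 30 minutes at room temperature, then given TNF-α at 15 ng/mL final. After 20 to 24 hours at 37° C, 5% CO2, viability was read as ATP luminescence to calculate cytotoxicity and necroptosis inhibition rate.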

MLKL [1] = target: T1, MLKL (Homo sapiens, UniProt Q8NB16); experiment: Measurement of binding affinity with MLKL receptor (competitive binding assay, Kd); design: made in house; host or cells: HEK 293 cell line (T7 phage in E. coli BL21-derived host is also described)
T1 sequence (Q8NB16 1-471): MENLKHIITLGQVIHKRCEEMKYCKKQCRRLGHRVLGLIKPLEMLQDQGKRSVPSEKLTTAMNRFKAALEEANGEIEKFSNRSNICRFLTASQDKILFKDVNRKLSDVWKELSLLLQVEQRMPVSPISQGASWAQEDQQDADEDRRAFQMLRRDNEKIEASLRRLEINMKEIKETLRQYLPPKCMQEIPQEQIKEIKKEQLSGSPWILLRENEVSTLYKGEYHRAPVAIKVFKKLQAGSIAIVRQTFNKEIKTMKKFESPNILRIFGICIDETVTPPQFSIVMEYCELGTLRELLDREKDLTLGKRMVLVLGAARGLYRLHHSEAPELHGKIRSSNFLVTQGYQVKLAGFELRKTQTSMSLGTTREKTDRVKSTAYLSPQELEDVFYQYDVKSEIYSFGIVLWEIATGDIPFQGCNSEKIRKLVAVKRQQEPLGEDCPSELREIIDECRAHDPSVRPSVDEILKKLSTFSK
Procedure, shortened: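 MLKL was produced in HEK 293 cells and tagged with DNA for detection. Liganded beads were blocked with excess biotin and washed to cut non-specific binding, then compounds (111× DMSO stocks, 0.9% DMSO in assay) competed for binding. Eluate kinase was measured by qPCR for Kd.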

MLKL [2] = target: T1, MLKL; experiment: MLKL degradation assay in HepG2 cell line (western blot); type: cell-based; design: endogenous in cells; host or cells: HepG2 or HaCaT; conditions: cell line not given; for Degradation assay (Degradation %) 1 μM: compound 1 μM; for Degradation assay (Degradation %) 10 μM: compound 10 μM
Procedure, shortened: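 HepG2 cells were exposed to compound at a final 1 or 10 μM for 20-24 hours at 37 °C, 5% CO2. RIPA lysates were normalized by BCA assay, 10-15 μg protein resolved by SDS-PAGE, and MLKL levels detected by western blot with chemiluminescence.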

Row | SMILES | Kd (MLKL [1]) | Degradation assay (Degradation %) 1 μM (MLKL [2]) | Degradation assay (Degradation %) 10 μM (MLKL [2]) | Necroptosis inhibition assay (Rescue %) 1 μM (FADD−/− Jurkat cells) | Necroptosis inhibition assay (Rescue %) 10 μM (FADD−/− Jurkat cells) | Necroptosis inhibition assay (Rescue %) 1 μM (FADD−/− Jurkat cells; FADD−/− Jurkat cells) | Necroptosis inhibition assay (Rescue %) 10 μM (FADD−/− Jurkat cells; FADD−/− Jurkat cells)
1 | Nc1ncc(-c2cnn([C@@H]3CCN(CC4CCN(C(=O)CNc5ccc6c(c5)C(=O)N(C5CCC(=O)NC5=O)C6=O)CC4)C3)c2)nc1C(=O)OC(C(=O)Nc1ccc(F)cc1)c1ccccc1 (stereo partly drawn) [TDH-286, 2-((4-fluorophenyl)amino)-2-oxo-1-phenylethyl 3-amino-6-(1-((3R)-1-((1-((2-(2,6-dioxopiperidin-3-yl)-1,3-dioxoisoindolin-5-yl)glycyl)piperidin-4-yl)methyl)pyrrolidin-3-yl)-1H-pyrazol-4-yl)pyrazine-2-carboxylate] | 12 nM | 71.83% | 71.94% | 88.45% | 79.75% |  | 
2 | Nc1ncc(-c2cnn(C3CCN(C(=O)COCCOCCNC(=O)C4CCN(c5ccc6c(c5)C(=O)N(C5CCC(=O)NC5=O)C6=O)CC4)CC3)c2)nc1C(=O)O[C@@H](C(=O)Nc1ccc(F)cc1)c1ccccc1 (stereo partly drawn) [TDH-195, (R)-2-((4-fluorophenyl)amino)-2-oxo-1-phenylethyl 3-amino-6-(1-(1-(2-(2-(2-(1-(2-(2,6-dioxopiperidin-3-yl)-1,3-dioxoisoindolin-5-yl)piperidine-4-carboxamido)ethoxy)ethoxy)acetyl)piperidin-4-yl)-1H-pyrazol-4-yl)pyrazine-2-carboxylate] | 6.9 nM | 63.85% | 29.78% | 80.66% | 39.24% |  | 
3 | Nc1ncc(-c2cnn(C3CCN(CC4CCN(C(=O)CC5CCN(c6ccc7c(c6)C(=O)N(C6CCC(=O)NC6=O)C7=O)CC5)CC4)CC3)c2)nc1C(=O)O[C@@H](C(=O)Nc1ccc(F)cc1)c1ccccc1 (stereo partly drawn) [TDH-205, (R)-2-((4-fluorophenyl)amino)-2-oxo-1-phenylethyl 3-amino-6-(1-(1-((1-(2-(1-(2-(2,6-dioxopiperidin-3-yl)-1,3-dioxoisoindolin-5-yl)piperidin-4-yl)acetyl)piperidin-4-yl)methyl)piperidin-4-yl)-1H-pyrazol-4-yl)pyrazine-2-carboxylate] | 6.7 nM | 57.56% | 36.05% | 59.88% | 41.34% |  | 
4 | Nc1ncc(-c2cnn(C3CCN(CCC4CCN(C(=O)COc5ccc6c(c5)C(=O)N(C5CCC(=O)NC5=O)C6=O)CC4)CC3)c2)cc1C(=O)OC(C(=O)Nc1ccc(F)cc1)c1ccccc1 (centres unmarked) [TDH-300, 2-((4-fluorophenyl)amino)-2-oxo-1-phenylethyl 2-amino-5-(1-(1-(2-(1-(2-((2-(2,6-dioxopiperidin-3-yl)-1,3-dioxoisoindolin-5-yl)oxy)acetyl)piperidin-4-yl)ethyl)piperidin-4-yl)-1H-pyrazol-4-yl)nicotinate] | 9 nM | 54.31% | 69.42% | 55.98% | 38.09% |  | 
5 | Nc1ncc(-c2cnn(C3CCN(CCCCCCCCCCNC(=O)C4CCN(c5cccc6c5C(=O)N(C5CCC(=O)NC5=O)C6=O)CC4)CC3)c2)nc1C(=O)O[C@@H](C(=O)Nc1ccc(F)cc1)c1ccccc1 (stereo partly drawn) [TDH-156, (R)-2-((4-fluorophenyl)amino)-2-oxo-1-phenylethyl 3-amino-6-(1-(1-(10-(1-(2-(2,6-dioxopiperidin-3-yl)-1,3-dioxoisoindolin-4-yl)piperidine-4-carboxamido)decyl)piperidin-4-yl)-1H-pyrazol-4-yl)pyrazine-2-carboxylate] | 53 nM | 31.35% | 18.75% | 19.9% | 21.77% |  | 

Second part, led by results:

Row | Kd (MLKL [1]) | Degradation assay (Degradation %) 1 μM (MLKL [2]) | Degradation assay (Degradation %) 10 μM (MLKL [2]) | SMILES | Necroptosis inhibition assay (Rescue %) 1 μM (FADD−/− Jurkat cells) | Necroptosis inhibition assay (Rescue %) 10 μM (FADD−/− Jurkat cells) | Necroptosis inhibition assay (Rescue %) 1 μM (FADD−/− Jurkat cells; FADD−/− Jurkat cells) | Necroptosis inhibition assay (Rescue %) 10 μM (FADD−/− Jurkat cells; FADD−/− Jurkat cells)
6 | 0.47 nM | 33.35% | 29.05% | Nc1ncc(-c2cnn(C3CCN(CC4CCN(CC5CCN(C(=O)C6CN(C7=CC(=O)N(C8CCC(=O)NC8=O)C7=O)C6)CC5)CC4)CC3)c2)nc1C(=O)O[C@@H](C(=O)Nc1ccc(F)cc1)c1ccccc1 (stereo partly drawn) [TDH-533, (R)-2-((4-fluorophenyl)amino)-2-oxo-1-phenylethyl 3-amino-6-(1-(1-((1-((1-(1-(1-(2,6-dioxopiperidin-3-yl)-2,5-dioxo-2,5-dihydro-1H-pyrrol-3-yl)azetidine-3-carbonyl)piperidin-4-yl)methyl)piperidin-4-yl)methyl)piperidin-4-yl)-1H-pyrazol-4-yl)pyrazine-2-carboxylate] |  |  | 11.86% | 22.99%
7 | 4.6 nM | 22.83% |  | Nc1ncc(-c2cnn(C3CCN(C(=O)c4cn(C5CCN(C(=O)CNc6cccc7c6C(=O)N(C6CCC(=O)NC6=O)C7=O)CC5)cn4)CC3)c2)nc1C(=O)O[C@@H](C(=O)Nc1ccc(F)cc1)c1ccccc1 (stereo partly drawn) [TDH-356, (R)-2-((4-fluorophenyl)amino)-2-oxo-1-phenylethyl 3-amino-6-(1-(1-(1-(1-((2-(2,6-dioxopiperidin-3-yl)-1,3-dioxoisoindolin-4-yl)glycyl)piperidin-4-yl)-1H-imidazole-4-carbonyl)piperidin-4-yl)-1H-pyrazol-4-yl)pyrazine-2-carboxylate] | 5.27% | 0.50% |  | 
8 | 1 nM | 86.88% | 76.78% | Nc1ncc(-c2cnn(C3CCN(C(=O)CCC4CCN(C(=O)CCc5cccc6c5C(=O)N(C5CCC(=O)NC5=O)C6=O)CC4)CC3)c2)nc1C(=O)O[C@@H](C(=O)Nc1ccc(F)cc1)c1ccccc1 (stereo partly drawn) [TDH-431, (R)-2-((4-fluorophenyl)amino)-2-oxo-1-phenylethyl 3-amino-6-(1-(1-(3-(1-(3-(2-(2,6-dioxopiperidin-3-yl)-1,3-dioxoisoindolin-4-yl)propanoyl)piperidin-4-yl)propanoyl)piperidin-4-yl)-1H-pyrazol-4-yl)pyrazine-2-carboxylate] |  |  | 37.24% | 17.64%
9 | 1.8 nM | 79.73% | 64.92% | Nc1ncc(-c2cnn(C3CCN(C(=O)CCC4CCN(C(=O)C5CCN(c6cccc7nnn(C8CCC(=O)NC8=O)c(=O)c67)CC5)CC4)CC3)c2)nc1C(=O)O[C@@H](C(=O)Nc1ccc(F)cc1)c1ccccc1 (stereo partly drawn) [TDH-435, (R)-2-((4-fluorophenyl)amino)-2-oxo-1-phenylethyl 3-amino-6-(1-(1-(3-(1-(1-(3-(2,6-dioxopiperidin-3-yl)-4-oxo-3,4-dihydrobenzo[d][1,2,3]triazin-5-yl)piperidine-4-carbonyl)piperidin-4-yl)propanoyl)piperidin-4-yl)-1H-pyrazol-4-yl)pyrazine-2-carboxylate] |  |  | 18.26% | 11.49%
10 | 2.8 nM | 72.47% | 50.39% | Nc1ncc(-c2cnn(C3CCN(CC4CN(C(=O)C5CCN(c6ccc7c(c6)C(=O)N(C6CCC(=O)NC6=O)C7=O)CC5)CCO4)CC3)c2)nc1C(=O)OC(C(=O)Nc1ccc(F)cc1)c1ccccc1 (centres unmarked) [TDH-305, 2-((4-fluorophenyl)amino)-2-oxo-1-phenylethyl 3-amino-6-(1-(1-((4-(1-(2-(2,6-dioxopiperidin-3-yl)-1,3-dioxoisoindolin-5-yl)piperidine-4-carbonyl)morpholin-2-yl)methyl)piperidin-4-yl)-1H-pyrazol-4-yl)pyrazine-2-carboxylate] | 66.84% | 52.42% |  | 
11 | 0.22 nM | 78.56% |  | Nc1ncc(-c2cnn(C3CCN(CC4CCN(CC5CCN(C(=O)c6ccc7c(N8CCC(=O)NC8=O)coc7c6)CC5)CC4)CC3)c2)nc1C(=O)O[C@@H](C(=O)Nc1ccc(F)cc1)c1ccccc1 [TDH-555, (R)-2-((4-fluorophenyl)amino)-2-oxo-1-phenylethyl 3-amino-6-(1-(1-((1-((1-(3-(2,4-dioxotetrahydropyrimidin-1(2H)-yl)benzofuran-6-carbonyl)piperidin-4-yl)methyl)piperidin-4-yl)methyl)piperidin-4-yl)-1H-pyrazol-4-yl)pyrazine-2-carboxylate] |  |  | 47.10% | −51.39%
